Assay results from the kinase profiling compilation of Christmann-Franck et al. (2016).

Tests used:
Assay in all cases: KINOMEscan competition binding
Settings in all cases: compound 10.0 µM
[1] = molecular target: NEK3 (human) (UniProt P51956)
[2] = molecular target: MST4 (human) (UniProt Q9P289)
[3] = molecular target: STK36 (human) (UniProt Q9NRP7)
[4] = molecular target: MAP2K3 (human) (UniProt P46734)
[5] = molecular target: TLK1 (human) (UniProt Q9UKI8)
[6] = molecular target: STK24 (human) (UniProt Q9Y6E0)
Sequence of STK24 (human) (Q9Y6E0 whole entry, looked up): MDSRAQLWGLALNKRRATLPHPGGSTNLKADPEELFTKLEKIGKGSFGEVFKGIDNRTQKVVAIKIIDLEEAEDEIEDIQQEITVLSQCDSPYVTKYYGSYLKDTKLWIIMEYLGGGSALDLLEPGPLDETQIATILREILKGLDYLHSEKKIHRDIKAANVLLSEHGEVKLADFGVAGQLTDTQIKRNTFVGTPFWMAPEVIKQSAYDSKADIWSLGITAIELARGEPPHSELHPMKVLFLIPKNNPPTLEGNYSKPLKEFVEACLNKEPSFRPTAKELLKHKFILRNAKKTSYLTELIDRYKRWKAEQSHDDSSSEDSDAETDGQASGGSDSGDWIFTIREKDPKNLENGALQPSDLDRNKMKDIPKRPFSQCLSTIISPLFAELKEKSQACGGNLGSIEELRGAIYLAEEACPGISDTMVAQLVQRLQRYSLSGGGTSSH

[7] = molecular target: TGFBR1 (human) (UniProt P36897)
[8] = molecular target: AURKC (human) (UniProt Q9UQB9)
Sequence of AURKC (human) (Q9UQB9 whole entry, looked up): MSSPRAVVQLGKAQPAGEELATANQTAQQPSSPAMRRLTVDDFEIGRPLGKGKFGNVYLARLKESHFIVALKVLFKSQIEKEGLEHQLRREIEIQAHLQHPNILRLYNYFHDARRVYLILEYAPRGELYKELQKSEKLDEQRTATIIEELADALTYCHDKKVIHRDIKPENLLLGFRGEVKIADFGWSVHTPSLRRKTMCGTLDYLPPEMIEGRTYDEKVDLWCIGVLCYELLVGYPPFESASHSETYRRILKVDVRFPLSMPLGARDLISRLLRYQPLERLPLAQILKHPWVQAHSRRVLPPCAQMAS

[9] = molecular target: PLK3 (human) (UniProt Q9H4B4)
[10] = system: RET (human), P07949 [M918T]
[11] = molecular target: DYRK1A (human) (UniProt Q13627)
[12] = molecular target: CAMK4 (human) (UniProt Q16566)
[13] = molecular target: CSNK1G1 (human) (UniProt Q9HCP0)
[14] = molecular target: PHKG1 (human) (UniProt Q16816)
[15] = molecular target: HIPK4 (human) (UniProt Q8NE63)
[16] = molecular target: GAK (human) (UniProt O14976)
[17] = molecular target: ICK (human) (UniProt Q9UPZ9)
[18] = molecular target: CDK14 (human) (UniProt O94921)
[19] = molecular target: NEK9 (human) (UniProt Q8TD19)
Sequence of NEK9 (human) (Q8TD19 whole entry, looked up): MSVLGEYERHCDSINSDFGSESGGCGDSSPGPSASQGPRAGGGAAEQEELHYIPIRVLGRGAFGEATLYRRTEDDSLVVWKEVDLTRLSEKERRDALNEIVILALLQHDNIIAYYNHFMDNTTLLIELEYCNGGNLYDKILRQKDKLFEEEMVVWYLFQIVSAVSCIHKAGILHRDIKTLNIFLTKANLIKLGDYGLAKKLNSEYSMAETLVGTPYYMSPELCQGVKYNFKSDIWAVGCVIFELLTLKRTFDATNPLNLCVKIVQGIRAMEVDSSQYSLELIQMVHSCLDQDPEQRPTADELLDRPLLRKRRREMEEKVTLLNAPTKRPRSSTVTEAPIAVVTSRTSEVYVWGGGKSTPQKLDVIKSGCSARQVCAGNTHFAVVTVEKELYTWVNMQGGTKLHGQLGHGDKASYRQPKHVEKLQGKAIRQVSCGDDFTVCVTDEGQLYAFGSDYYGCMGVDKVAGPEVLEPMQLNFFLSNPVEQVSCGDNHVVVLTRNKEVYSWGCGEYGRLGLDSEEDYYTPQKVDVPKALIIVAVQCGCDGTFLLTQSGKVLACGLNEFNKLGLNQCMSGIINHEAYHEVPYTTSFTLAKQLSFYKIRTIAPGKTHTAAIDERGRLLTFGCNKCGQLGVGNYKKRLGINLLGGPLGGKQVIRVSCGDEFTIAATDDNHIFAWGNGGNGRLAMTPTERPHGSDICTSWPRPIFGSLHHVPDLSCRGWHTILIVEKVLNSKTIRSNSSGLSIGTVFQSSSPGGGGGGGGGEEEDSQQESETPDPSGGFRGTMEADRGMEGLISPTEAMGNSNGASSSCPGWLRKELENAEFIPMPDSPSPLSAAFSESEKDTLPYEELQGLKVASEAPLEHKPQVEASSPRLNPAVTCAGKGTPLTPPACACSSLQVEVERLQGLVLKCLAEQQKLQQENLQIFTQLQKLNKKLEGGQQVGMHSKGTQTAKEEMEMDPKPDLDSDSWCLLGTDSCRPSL

[20] = molecular target: MAP2K4 (human) (UniProt P45985)
Sequence of MAP2K4 (human) (P45985 whole entry, looked up): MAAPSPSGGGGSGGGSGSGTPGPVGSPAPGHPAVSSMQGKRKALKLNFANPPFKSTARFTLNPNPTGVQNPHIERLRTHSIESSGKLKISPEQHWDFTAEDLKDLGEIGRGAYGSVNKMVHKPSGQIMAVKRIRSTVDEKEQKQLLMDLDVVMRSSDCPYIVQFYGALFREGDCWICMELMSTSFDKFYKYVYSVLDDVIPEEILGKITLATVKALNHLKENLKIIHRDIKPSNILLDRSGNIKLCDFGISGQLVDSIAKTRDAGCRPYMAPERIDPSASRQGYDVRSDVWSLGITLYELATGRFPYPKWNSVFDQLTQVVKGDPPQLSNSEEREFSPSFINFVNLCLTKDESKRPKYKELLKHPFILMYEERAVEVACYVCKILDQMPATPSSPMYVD

[21] = molecular target: CAMK2B (human) (UniProt Q13554)
[22] = molecular target: RIPK2 (human) (UniProt O43353)
[23] = molecular target: MAP2K7 (human) (UniProt O14733)
[24] = molecular target: MAP3K6 (human) (UniProt O95382)
Sequence of MAP3K6 (human) (O95382 whole entry, looked up): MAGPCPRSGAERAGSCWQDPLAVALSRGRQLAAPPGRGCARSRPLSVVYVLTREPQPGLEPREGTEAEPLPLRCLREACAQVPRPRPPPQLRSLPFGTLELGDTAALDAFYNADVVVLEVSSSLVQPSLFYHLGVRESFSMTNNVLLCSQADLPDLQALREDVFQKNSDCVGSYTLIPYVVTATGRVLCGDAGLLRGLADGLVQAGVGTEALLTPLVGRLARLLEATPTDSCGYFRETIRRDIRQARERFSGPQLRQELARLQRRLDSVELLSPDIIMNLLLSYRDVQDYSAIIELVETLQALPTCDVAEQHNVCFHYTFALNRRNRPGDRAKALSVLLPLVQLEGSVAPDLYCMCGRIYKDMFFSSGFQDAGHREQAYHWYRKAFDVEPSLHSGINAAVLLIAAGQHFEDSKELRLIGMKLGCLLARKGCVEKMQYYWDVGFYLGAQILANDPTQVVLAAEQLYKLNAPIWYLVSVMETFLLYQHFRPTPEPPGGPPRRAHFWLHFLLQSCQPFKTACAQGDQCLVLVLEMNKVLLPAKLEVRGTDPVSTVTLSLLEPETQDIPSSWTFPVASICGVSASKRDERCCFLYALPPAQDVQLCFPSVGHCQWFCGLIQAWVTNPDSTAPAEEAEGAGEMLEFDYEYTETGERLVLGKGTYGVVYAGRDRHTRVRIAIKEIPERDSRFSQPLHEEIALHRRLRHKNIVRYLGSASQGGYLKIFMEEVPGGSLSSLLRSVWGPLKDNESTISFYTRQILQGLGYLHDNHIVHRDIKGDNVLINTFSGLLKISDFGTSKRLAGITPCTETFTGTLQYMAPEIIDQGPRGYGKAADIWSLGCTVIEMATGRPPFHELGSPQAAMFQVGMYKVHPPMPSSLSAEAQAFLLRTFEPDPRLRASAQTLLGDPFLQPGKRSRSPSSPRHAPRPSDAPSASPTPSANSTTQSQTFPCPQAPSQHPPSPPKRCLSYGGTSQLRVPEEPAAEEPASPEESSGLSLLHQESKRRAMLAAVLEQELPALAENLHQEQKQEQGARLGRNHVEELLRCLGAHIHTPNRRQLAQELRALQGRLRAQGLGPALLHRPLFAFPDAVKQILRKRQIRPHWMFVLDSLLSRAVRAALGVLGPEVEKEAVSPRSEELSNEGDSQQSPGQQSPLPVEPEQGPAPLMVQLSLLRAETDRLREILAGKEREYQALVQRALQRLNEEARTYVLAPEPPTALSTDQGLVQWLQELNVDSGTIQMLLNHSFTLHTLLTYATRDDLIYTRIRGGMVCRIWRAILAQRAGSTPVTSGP

[25] = molecular target: MAPKAPK5 (human) (UniProt Q8IW41)
[26] = molecular target: MAP3K11 (human) (UniProt Q16584)
[27] = molecular target: STK16 (human) (UniProt O75716)
[28] = molecular target: OXSR1 (human) (UniProt O95747)
[29] = molecular target: AXL (human) (UniProt P30530)
[30] = molecular target: AURKA (human) (UniProt O14965)
[31] = molecular target: DAPK1 (human) (UniProt P53355)
[32] = system: KIT (human), P10721 [V559D/V654A]
[33] = molecular target: TTK (human) (UniProt P33981)
Sequence of TTK (human) (P33981 whole entry, looked up): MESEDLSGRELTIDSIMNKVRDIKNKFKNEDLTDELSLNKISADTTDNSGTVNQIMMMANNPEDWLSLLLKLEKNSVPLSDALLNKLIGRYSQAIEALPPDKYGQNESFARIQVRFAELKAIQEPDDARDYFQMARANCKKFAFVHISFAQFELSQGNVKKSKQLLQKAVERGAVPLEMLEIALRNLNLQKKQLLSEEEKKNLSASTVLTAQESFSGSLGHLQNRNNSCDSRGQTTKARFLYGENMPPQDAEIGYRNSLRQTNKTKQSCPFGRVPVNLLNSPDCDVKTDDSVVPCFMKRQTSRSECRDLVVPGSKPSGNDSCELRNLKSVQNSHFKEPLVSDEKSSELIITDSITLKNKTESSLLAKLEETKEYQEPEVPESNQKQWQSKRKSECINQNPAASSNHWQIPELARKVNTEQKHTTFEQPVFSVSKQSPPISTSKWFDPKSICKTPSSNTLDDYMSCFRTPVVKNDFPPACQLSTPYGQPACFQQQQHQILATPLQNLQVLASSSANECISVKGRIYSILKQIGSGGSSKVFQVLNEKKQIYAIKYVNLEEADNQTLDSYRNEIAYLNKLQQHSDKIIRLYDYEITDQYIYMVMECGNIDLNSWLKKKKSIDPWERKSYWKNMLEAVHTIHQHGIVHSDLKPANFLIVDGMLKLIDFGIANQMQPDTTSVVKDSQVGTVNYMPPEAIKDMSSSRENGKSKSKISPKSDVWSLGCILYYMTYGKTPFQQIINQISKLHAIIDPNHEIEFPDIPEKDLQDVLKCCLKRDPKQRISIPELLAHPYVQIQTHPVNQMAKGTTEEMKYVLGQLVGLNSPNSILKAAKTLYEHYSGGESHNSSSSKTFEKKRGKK

[34] = molecular target: STK38L (human) (UniProt Q9Y2H1)
[35] = molecular target: PRKD1 (human) (UniProt Q15139)
[36] = molecular target: PKMYT1 (human) (UniProt Q99640)
[37] = molecular target: MAP2K1 (human) (UniProt Q02750)
[38] = molecular target: CDK5 (human) (UniProt Q00535)
[39] = molecular target: JAK2 JH1 catalytic (human) (UniProt O60674)
[40] = molecular target: STK3 (human) (UniProt Q13188)
Sequence of STK3 (human) (Q13188 whole entry, looked up): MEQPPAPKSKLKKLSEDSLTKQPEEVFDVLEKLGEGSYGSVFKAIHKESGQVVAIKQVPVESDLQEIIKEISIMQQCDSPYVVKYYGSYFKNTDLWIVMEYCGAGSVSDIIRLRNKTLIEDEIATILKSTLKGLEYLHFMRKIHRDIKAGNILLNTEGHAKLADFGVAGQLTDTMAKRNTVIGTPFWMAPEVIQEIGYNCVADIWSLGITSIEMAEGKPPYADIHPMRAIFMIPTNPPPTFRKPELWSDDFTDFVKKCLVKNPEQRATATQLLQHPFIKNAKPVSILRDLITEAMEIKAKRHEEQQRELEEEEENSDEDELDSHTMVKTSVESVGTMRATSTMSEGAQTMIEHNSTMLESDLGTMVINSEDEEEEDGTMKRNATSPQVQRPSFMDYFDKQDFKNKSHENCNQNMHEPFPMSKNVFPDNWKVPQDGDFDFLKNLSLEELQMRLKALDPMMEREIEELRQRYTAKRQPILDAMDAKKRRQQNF

Q: For `C=CC(=O)Nc1cc(-n2c(=O)ccc3cnc4ccc(-c5cn[nH]c5)cc4c32)ccc1C`, which kinase still bound, per cent of control [1] is on record?
A: 77%

Q: What about the kinase still bound, per cent of control [2] of the same compound?
A: 79%

Q: What about the kinase still bound, per cent of control [3] of the same compound?
A: 79%

Q: And the kinase still bound, per cent of control [4]?
A: 8.6%

Q: And the kinase still bound, per cent of control [5]?
A: 100%

Q: What about the kinase still bound, per cent of control [6] of the same compound?
A: 95%

Q: What about the kinase still bound, per cent of control [7] of the same compound?
A: 83%

Q: What about the kinase still bound, per cent of control [8] of the same compound?
A: 100%

Q: And the kinase still bound, per cent of control [9]?
A: 99%

Q: And the kinase still bound, per cent of control [10]?
A: 51%

Q: What about the kinase still bound, per cent of control [11] of the same compound?
A: 0.1%

Q: What about the kinase still bound, per cent of control [12] of the same compound?
A: 100%

Q: What about the kinase still bound, per cent of control [13] of the same compound?
A: 86%

Q: What about the kinase still bound, per cent of control [14] of the same compound?
A: 58%

Q: What about the kinase still bound, per cent of control [15] of the same compound?
A: 51%

Q: And the kinase still bound, per cent of control [16]?
A: 18%

Q: And the kinase still bound, per cent of control [17]?
A: 67%

Q: What about the kinase still bound, per cent of control [18] of the same compound?
A: 60%

Q: What about the kinase still bound, per cent of control [19] of the same compound?
A: 100%

Q: And the kinase still bound, per cent of control [20]?
A: 14%

Q: What about the kinase still bound, per cent of control [21] of the same compound?
A: 44%

Q: What about the kinase still bound, per cent of control [22] of the same compound?
A: 56%

Q: And the kinase still bound, per cent of control [23]?
A: 14%

Q: And the kinase still bound, per cent of control [24]?
A: 75%

Q: What about the kinase still bound, per cent of control [25] of the same compound?
A: 78%

Q: And the kinase still bound, per cent of control [26]?
A: 100%

Q: And the kinase still bound, per cent of control [27]?
A: 52%

Q: And the kinase still bound, per cent of control [28]?
A: 79%

Q: What about the kinase still bound, per cent of control [29] of the same compound?
A: 100%

Q: What about the kinase still bound, per cent of control [30] of the same compound?
A: 63%

Q: What about the kinase still bound, per cent of control [31] of the same compound?
A: 70%

Q: And the kinase still bound, per cent of control [32]?
A: 100%

Q: What about the kinase still bound, per cent of control [33] of the same compound?
A: 21%

Q: And the kinase still bound, per cent of control [34]?
A: 100%

Q: And the kinase still bound, per cent of control [35]?
A: 100%

Q: And the kinase still bound, per cent of control [36]?
A: 81%

Q: What about the kinase still bound, per cent of control [37] of the same compound?
A: 69%

Q: And the kinase still bound, per cent of control [38]?
A: 84%

Q: And the kinase still bound, per cent of control [39]?
A: 16%

Q: What about the kinase still bound, per cent of control [40] of the same compound?
A: 100%

Q: Which results are given for `COc1cc(C(=O)N2CCC(N3CCN(C)CC3)CC2)ccc1Nc1ncc2c(n1)N(C)c1ccccc1C(=O)N2C`?
A: kinase still bound, per cent of control [1]: 100%; kinase still bound, per cent of control [2]: 95%; kinase still bound, per cent of control [3]: 97%; kinase still bound, per cent of control [4]: 75%; kinase still bound, per cent of control [5]: 100%; kinase still bound, per cent of control [6]: 87%; kinase still bound, per cent of control [7]: 100%; kinase still bound, per cent of control [8]: 50%; kinase still bound, per cent of control [9]: 51%; kinase still bound, per cent of control [10]: 100%; kinase still bound, per cent of control [11]: 99%; kinase still bound, per cent of control [12]: 79%; kinase still bound, per cent of control [13]: 100%; kinase still bound, per cent of control [14]: 54%; kinase still bound, per cent of control [15]: 100%; kinase still bound, per cent of control [16]: 16%; kinase still bound, per cent of control [17]: 90%; kinase still bound, per cent of control [18]: 81%; kinase still bound, per cent of control [19]: 100%; kinase still bound, per cent of control [20]: 100%; kinase still bound, per cent of control [21]: 62%; kinase still bound, per cent of control [22]: 100%; kinase still bound, per cent of control [23]: 100%; kinase still bound, per cent of control [24]: 100%; kinase still bound, per cent of control [25]: 97%; kinase still bound, per cent of control [26]: 100%; kinase still bound, per cent of control [27]: 62%; kinase still bound, per cent of control [28]: 88%; kinase still bound, per cent of control [29]: 100%; kinase still bound, per cent of control [30]: 1.2%; kinase still bound, per cent of control [31]: 73%; kinase still bound, per cent of control [32]: 100%; kinase still bound, per cent of control [33]: 28%; kinase still bound, per cent of control [34]: 100%; kinase still bound, per cent of control [35]: 28%; kinase still bound, per cent of control [36]: 80%; kinase still bound, per cent of control [37]: 100%; kinase still bound, per cent of control [38]: 81%; kinase still bound, per cent of control [39]: 70%; kinase still bound, per cent of control [40]: 71%

Q: Which kinase still bound, per cent of control [1] does the source give for `COc1ccc(N(C(=O)Oc2c(C)cccc2C)c2ccnc(Nc3ccc(N4CCN(C)CC4)cc3)n2)c(OC)c1` here?
A: 100%

Q: What about the kinase still bound, per cent of control [2] of the same compound?
A: 33%

Q: And the kinase still bound, per cent of control [3]?
A: 0.95%

Q: And the kinase still bound, per cent of control [4]?
A: 66%

Q: And the kinase still bound, per cent of control [5]?
A: 45%

Q: What about the kinase still bound, per cent of control [6] of the same compound?
A: 52%

Q: What about the kinase still bound, per cent of control [7] of the same compound?
A: 0.75%

Q: What about the kinase still bound, per cent of control [8] of the same compound?
A: 9.9%

Q: What about the kinase still bound, per cent of control [9] of the same compound?
A: 100%

Q: What about the kinase still bound, per cent of control [10] of the same compound?
A: 0.1%

Q: What about the kinase still bound, per cent of control [11] of the same compound?
A: 75%

Q: What about the kinase still bound, per cent of control [12] of the same compound?
A: 100%

Q: What about the kinase still bound, per cent of control [13] of the same compound?
A: 95%

Q: What about the kinase still bound, per cent of control [14] of the same compound?
A: 12%

Q: What about the kinase still bound, per cent of control [15] of the same compound?
A: 8.8%

Q: And the kinase still bound, per cent of control [16]?
A: 5.6%

Q: And the kinase still bound, per cent of control [17]?
A: 100%

Q: What about the kinase still bound, per cent of control [18] of the same compound?
A: 93%

Q: And the kinase still bound, per cent of control [19]?
A: 100%

Q: What about the kinase still bound, per cent of control [20] of the same compound?
A: 100%

Q: What about the kinase still bound, per cent of control [21] of the same compound?
A: 98%

Q: What about the kinase still bound, per cent of control [22] of the same compound?
A: 0%

Q: What about the kinase still bound, per cent of control [23] of the same compound?
A: 85%

Q: And the kinase still bound, per cent of control [24]?
A: 93%

Q: What about the kinase still bound, per cent of control [25] of the same compound?
A: 100%

Q: And the kinase still bound, per cent of control [26]?
A: 8.8%

Q: And the kinase still bound, per cent of control [27]?
A: 15%

Q: And the kinase still bound, per cent of control [28]?
A: 93%

Q: What about the kinase still bound, per cent of control [29] of the same compound?
A: 17%

Q: What about the kinase still bound, per cent of control [30] of the same compound?
A: 6.8%

Q: And the kinase still bound, per cent of control [31]?
A: 73%

Q: And the kinase still bound, per cent of control [32]?
A: 85%

Q: And the kinase still bound, per cent of control [33]?
A: 42%

Q: And the kinase still bound, per cent of control [34]?
A: 100%

Q: What about the kinase still bound, per cent of control [35] of the same compound?
A: 9.3%

Q: What about the kinase still bound, per cent of control [36] of the same compound?
A: 100%

Q: What about the kinase still bound, per cent of control [37] of the same compound?
A: 38%

Q: And the kinase still bound, per cent of control [38]?
A: 98%

Q: What about the kinase still bound, per cent of control [39] of the same compound?
A: 35%

Q: And the kinase still bound, per cent of control [40]?
A: 23%
